Experiments:
[1] = system: nylon wool non-adherent lymphocytes (NAC); experiment: 51Cr release toxicity assay; assay type: cell-based, human; conditions: 25 to 50 micromolar
Procedure: (§1) In some experiments, toxicity of Leu-Leu-OMe for a variety of cell populations was assessed by ^51 Cr release In assays where cells obtained from suspension culture were to be used, cells were labeled with Na2^51 CrO4 (ICN, Plainview, N.Y.) for 60-90 minutes at 37° C. and then washed three times. Cells were then suspended in PBS (2.5×10^6 /ml) and incubated in microtiter plates, 50 microL/well with indicated concentrations of Leu-Leu-OMe for 15 minutes at room temperature. […] Following ^51 Cr labeling, wells were thoroughly washed and varying concentrations of Leu-Leu-OMe added in 50 microL PBS and the plates incubated for 15 minutes at room temperature.
(§2) Following such initial serum-free incubations, 200 microL/well of medium RPMI containing 10% FBS were added and the plates incubated for another 4 hours prior to removal of 100 microliters of supernatant. Radioactivity in the supernatant was measured in an auto-gamma scintillation spectrometer (Packard Instrument Co., Downers Grove, Ill.). The percent specific release was calculated from the formula: [formula] in which maximal release refers to cpm obtained in wells containing 50% lysing agent (American Scientific Products, McGraw Park, Ill.) and spontaneous release refers to cpm released by cells incubated in control medium in the absence of Leu-Leu-OMe or the lysing agent. Only experiments in which spontaneous release was […] were used for subsequent data interpretation.
(§3) In developing the data expressed in FIG. 7, cells (2.5×10^6 /ml) were exposed to the indicated concentrations of Leu-Leu-OMe for 15 minutes at room temperature, then specific ^51 Cr release during the next four hours was assessed. Data for the EBV transformed lines JM.6, SDL-G2, D8-219, and SM.4, respectively, are shown in order from top to bottom.

PBM = experiment: 51Cr release toxicity assay; assay type: cell-based, human; conditions: 15 minutes exposure, 4 hour release (FIG. 7)
Procedure: as §1, §2, §3

Daudi = experiment: 51Cr release toxicity assay; assay type: cell-based, human; conditions: broad range of concentrations
Excerpt: (§4) HS-Sultan, a human plasma cell line (Goldblum et al. (1973) Proc. Seventh Leucocyte Culture Conference, ed by Daguilland, Acad. Press N.Y. pp 15-28), Daudi, a B lymphoblastoid cell line (Klein et al. (1968) Cancer Res. V 28, p 1300), MoLT-4, an acute lymphoblastic T-cell leukemia line (Monowada et al. (1972) J. Nat'l Canc. Inst. V 49, p 891), and U-937, a human monocyte-like cell line (Koren et al. (1979) Nature V 279, p 891) were obtained from the American Type Culture Collection, Rockville, Md. These lines as well as HEp-2 a human epidermoid carcinoma line (a generous gift of Dr. R. Sontheimer, UTHSCD); Currie, a human renal cell carcinoma line (a generous gift of Dr. M. Prager, UTHSCD); and K562, a human erythroleukemia line (a generous gift of Dr. M. Bennett, UTHSCD) were maintained in culture in medium RMPI supplemented with 10% FBS. Human dermal fibroblasts (a generous gift of Dr. T. Geppert, UTHSCD) were serially passaged in culture as well while human umbilical vein endothelial cells (a generous gift of Dr. A. Johnson, UTHSCD) were used after one subculture Epttein Barr virus (EBV) transformed B lymphoblastoid cell lines JM.6 and SM.4 (kindly provided by Dr. J. Moreno, UTHSCD) and cloned EBV transformed B cell lines SDL-G2 and D8-219 (a generous gift of Drs. L. Stein and M. Dosch, Hospital for Sick Children, Toronto, Canada) were maintained in culture in medium RPMI supplemented with 10% FBS.
as §1, §2, §3

MoLT-4 = experiment: 51Cr release toxicity assay; assay type: cell-based, human; conditions: broad concentration range
Excerpt: as §4, §1, §2, §3

[2] = system: EBV-transformed B cell lines or clones; experiment: 51Cr release toxicity assay; assay type: cell-based, human
Excerpt: as §4, §1, §2, §3

K562 = experiment: 51Cr release toxicity assay; assay type: cell-based, human
Excerpt: as §4, §1, §2, §3

HS-Sultan = experiment: 51Cr release toxicity assay; assay type: cell-based, human; conditions: broad range of concentrations
Excerpt: as §4, §1, §2, §3

U937 = experiment: 51Cr release toxicity assay; assay type: cell-based, human
Excerpt: as §4, §1, §2, §3

spleen cells = experiment: Spleen cell H-2 phenotype of transplanted mice (chimerism); assay type: in vivo, B6→B6D2F1 mice; conditions: recipients of treated cells, up to 275 d after transplantation
Procedure: Spleen cells from control mice (normal B6 or B6D2F1) and long-term BMTx survivors (B6→B6D2F1) were depleted of B cells by panning on goat anti-mouse immunoglobulin-coated petri dishes (15). Aliquots of B cell-depleted spleen cells were incubated either with antibody 30-5-7.S (anti-L^d), antibody 28-18-3.S (anti-k^b), or with a relevant isotype control antibody for 30 min at 4° C. Cells were then washed and incubated with a fluorescein isothiocyanate-labeled goat anti-mouse immunoglobulin (GAMIG-FITC, Cappell Laboratories, Cochranville, Pa.) and analyzed on a flow cytometer (Ortho system 50 HH, Ortho Diagnostics, Raritan, N.J.).
To see whether the donor hemopoietic system remained dominant over that of the irradiated recipient, we characterized the H-2 phenotype of spleen cells from the mice used in the survival experiments at various times after transplantation. Spleen cells from normal B6 (donor, H-2^b) and B6D2F1 (recipient, H-2^b /H-2^d) mice served as controls.

[3] = system: CD16(+), CD4(+), CD8(+) lymphocytes; experiment: Lymphocyte subsets of PBL stained with alpha-CD16, alpha-CD4, alpha-CD8; assay type: cell-based, human
Excerpt: Thus, as previously reported (see prior Examples and J. Immunol. 1986; 136:1038-1048), exposure of human PBL to 250 micro-M Leu-Leu-OMe results in loss of all CD16(+) NK cells, and the majority of CD8(+) T cells and thereby results in reciprocal enrichment of the CD4(+) T cell subset which is largely Leu-Leu-OMe resistant (see Table 13).

COC(=O)[C@H](CC(C)C)NC(=O)[C@@H](N)CC(C)C [Leu-Leu-OMe, L-leucyl-L-leucine methyl ester]
51Cr release [1]: small but significant ^51 Cr release
concentration for maximal achievable 51Cr release (PBM): greater than 100 micromolar
concentration giving detectable 51Cr release (PBM): 25 to 50 µM
51Cr release and proliferative rate (Daudi): no significant ^51 Cr release or alteration in subsequent proliferative rate
toxicity (51Cr release) (MoLT-4): no detectable Leu-Leu-OMe toxicity over a broad concentration range
51Cr release ([2]; 1 mM, some EBV lines): less than 20%
51Cr release ([2]; 250 micromolar, other lines): 25-35%
toxicity (51Cr release) ([2]; less than 250 micromolar): no significant toxicity
51Cr release and proliferative rate (K562; 100 micromolar or lower): no significant ^51 Cr release or alteration in subsequent proliferative rate
51Cr release and proliferative capacity (K562; higher than 100 micromolar): modest amounts of ^51 Cr release and partial loss of proliferative capacity
51Cr release and proliferative rate (HS-Sultan): no significant ^51 Cr release or alteration in subsequent proliferative rate
concentration above which extensive 51Cr release and no viable proliferating cell (U937): more than 250 micromolar
toxicity (51Cr release) (U937; concentration-dependent): susceptible to concentration-dependent Leu-Leu-OMe toxicity
reactivity of spleen cells with anti-H-2^b (spleen cells): > 95%
reactivity of spleen cells with anti-H-2^d (spleen cells): < 1%
Cells stained with alpha-CD16 ([3]; single agent (Leu-Leu-OMe 250 micro-M or Gly-Phe-CHN2 10^-6 M), Nil 8.1): < 0.1
Cells stained with alpha-CD8 ([3]; single agent, Nil 18.8): 7.0
Cells stained with alpha-CD4 ([3]; single agent, Nil 60.3): 87.2

Reference: patent US5304474A, “Hydrophobic peptide esters and amides” (Board of Regents, The University of Texas System, priority 1991, dated 1994)
